Results: patent US20240408064A1, “RAS INHIBITORS, COMPOSITIONS AND METHODS OF USE THEREOF” (GENETOLEAD INC., priority 2021, published 2024)
pKd: −log10 of the molar value. Where “and” joins values, the source holds several entries; their conditions need not be identical. Equal values may be shown once.

What was measured:
[1] = molecular target: T1, HRas^G12V (Homo sapiens (Human), UniProt P01112, G12V); assay: Dissociation constant by NMR (1H/15N Fast-HSQC, 1H 1D protein-observed); type: binding; conditions: HRas^G12V; read-out: NMR Kd
T1 sequence (P01112 1-166 G12V): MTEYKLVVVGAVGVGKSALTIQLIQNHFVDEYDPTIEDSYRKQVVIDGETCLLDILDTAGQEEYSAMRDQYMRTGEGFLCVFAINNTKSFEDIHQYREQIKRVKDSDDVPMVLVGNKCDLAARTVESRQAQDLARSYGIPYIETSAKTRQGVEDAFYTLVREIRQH
Description: All NMR experiments were collected using 3 mm NMR tubes on a 600 MHz Bruker Avance III spectrometer equipped with a QCI helium cryoprobe and a SampleJet sample changer. The buffer used for NMR experiments was 25 mM sodium phosphate pH 7.4, 150 mM NaCl, 5 mM MgCl2, 1 mM TCEP-d16, 10% D2O. Data were processed using Bruker TopSpin.
(§1) ^1H/^15N Fast-HSQC experiments (Mori et al., Journal of Magnetic Resonance, Series B, Volume 108, Issue 1, July 1995, Pages 94-98) were recorded at a protein concentration of 50-100 μM.
(§2) Dissociation constants were obtained by monitoring changes in chemical shifts as a function of ligand concentration. The changes in chemical shifts (d) were calculated according to the following equation (Williamson, Progress in Nuclear Magnetic Resonance Spectroscopy, Volume 73, August 2013, Pages 1-16): d=√(1/2[δ_H^2+[…]]), Where δ are the changes in chemical shift in ppm for ^1H and ^15N and the correction factor (α) was set at 0.15.
(§3) ^1H 1D protein-observed experiments were recorded with 15-50 μM protein. The standard Bruker 1D ^1H sequence with excitation sculpting (zgesgp) was employed. A relaxation delay of 1 s was employed in order to use 256 scans while still keeping experimental time fairly short. Changes in protein chemical shift or peak intensity in the methyl region were monitored against compound concentration.

[2] = molecular target: T1, HRas^G12V; assay: 19F T2-CPMG NMR score; type: binding
Summary of the method: (§4)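 In the T2-CPMG experiment, echo spacing was 1 ms and total delays ranged over eight values from 1 to 800 ms. Both scores come from 600 MHz NMR of 50 μM HRas G12V mixed with fragment pools at 240 μM each, in phosphate buffer pH 7.4 with NaCl, MgCl2 and TCEP-d16. Ligand-observed 19F spectra were recorded with 1H decoupling, 64 scans and a 5 s relaxation delay.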

[3] = molecular target: T1, HRas^G12V; assay: Overall binding/activity in the various assays (NMR consensus binding)
Summary of the method: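 Fragments (240 µM each, pooled) screened against 50 µM HRas^G12V in 25 mM sodium phosphate pH 7.4, 150 mM NaCl, 5 mM MgCl2, 1 mM TCEP-d16 by 1H-decoupled 1D 19F NMR. Hits confirmed by ligand- and protein-observed 1D 1H, STD and T2-CPMG (aggregation check); consensus binding ranked, with 15N HSQC for sites and Kd.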

[4] = molecular target: wild type HRAS (Homo sapiens (Human), UniProt P01112); assay: NMR Kd, wild type HRAS; type: binding
wild type HRAS, sequence (P01112 whole entry): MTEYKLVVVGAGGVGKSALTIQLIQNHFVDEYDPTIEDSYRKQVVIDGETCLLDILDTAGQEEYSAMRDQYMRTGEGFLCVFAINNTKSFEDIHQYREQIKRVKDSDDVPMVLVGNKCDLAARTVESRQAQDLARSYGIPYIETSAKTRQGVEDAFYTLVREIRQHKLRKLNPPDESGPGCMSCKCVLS
Description: as §1, §2, §3
The activity of compounds of the invention regarding wild type HRAS was measured in the same as in Example 80. The results obtained with the compounds in the various assays described above are depicted in Table 2.

[5] = molecular target: T2, KRAS^G12D-GDP (Homo sapiens (Human), UniProt P01116, G12D); assay: 19F DLB score, KRAS^G12D-GDP; type: binding; design: scale not given here
T2 sequence (P01116-2 other isoform, or with tags, fused parts or gaps G12D): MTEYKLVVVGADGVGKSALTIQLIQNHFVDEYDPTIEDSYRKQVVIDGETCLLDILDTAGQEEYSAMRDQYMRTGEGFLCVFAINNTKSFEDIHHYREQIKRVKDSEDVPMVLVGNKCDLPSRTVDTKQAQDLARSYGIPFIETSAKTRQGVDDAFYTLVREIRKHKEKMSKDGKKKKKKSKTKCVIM
Description: (§5) Since the fragment library was curated using phosphate buffer, 25 mM sodium phosphate pH 7.4, 150 mM NaCl, 5 mM MgCl2, 1 mM TCEP-d16, 10% D2O Fresh TCEP was used for experiments. Screening was performed using ^1H-decoupled 1D ^19F experiment Bruker experiment (zgfhigqn.2) with 64 scans and a relaxation delay of 5 seconds. 50 μM HRas^G12V and 240 μM of each fragment in pools (mixtures) were used.
(§6) Hit confirmation was performed using the same ^19F experiment as the screen. Ligand-observed 1D ^1H, protein-observed 1D ^1H, ^1H T2-CPMG as well as Saturation Transfer Difference (STD) experiments were also run on the same samples. Ligand-observed 1D ^1H was run using the standard Bruker sequence with excitation sculpting (zgesgp) with a relaxation delay of 10 seconds and 16 scans per spectrum. Protein-observed 1D ^1H was performed using the same sequence with a relaxation delay of 1 second and 256 scans in order to increase the signal-to-noise of the protein resonances, while keeping the experimental time relatively short. The ^1H T2-CPMG experiment employed a modified version of the Bruker 1D ^1H zgesgp experiment with the addition of a CPMG pulse train after the first 90° excitation pulse. Total duration for each spin echo was fixed at 1 ms (τ=500 μs), while the number of echoes in the pulse train was varied according to the total time (T). The number of scans for each spectrum was 4 and eight delay times were run on each sample, ranging from 1 ms to 800 ms.
(§7) The activity of compounds of the invention regarding KRAS^G12D-GDP was measured in the same as in Example 80. The results obtained with the compounds in the various assays described above are depicted in Table 23.

[6] = molecular target: T1, HRas^G12V; assay: 19F DLB (ligand-observed 19F NMR) score; type: binding; design: scale not given here
Summary of the method: as §4

[7] = molecular target: T2, KRAS^G12D-GDP; assay: 19F T2-CPMG score, KRAS^G12D-GDP; type: binding
Description: as §5, §6, §7

SMILES: CN(C)Cc1c[nH]c2cc(F)ccc12 [FS-1255, reference compound]
- pKd [1]: 1.92 to 2.01
- 19F T2-CPMG Score [2]: 5.22
- Binding to HRas^G12V (in words) [3]: weak binding affinity
- pKd [4]: 2.22
- 19F DLB Score [5]: 1.51
- 19F DLB Score [6]: 1.77 and 1.7 and 1.65
- 19F T2-CPMG Score [7]: 3.62
